Test results: patent US12662489B2 (Sitryx Therapeutics Limited, priority 2023, dated 2026)

How the values were obtained:
[1] = molecular target: T1, MTHFD2 recombinant human enzyme (Homo sapiens, UniProt P13995); assay: MTHFD2 inhibition assay (NAD(P)H-Glo luminescence); details: for MTHFD1/MTHFD2 IC50 ratio: selectivity of MTHFD2 inhibition over MTHFD1, band
T1 sequence (P13995 36-350): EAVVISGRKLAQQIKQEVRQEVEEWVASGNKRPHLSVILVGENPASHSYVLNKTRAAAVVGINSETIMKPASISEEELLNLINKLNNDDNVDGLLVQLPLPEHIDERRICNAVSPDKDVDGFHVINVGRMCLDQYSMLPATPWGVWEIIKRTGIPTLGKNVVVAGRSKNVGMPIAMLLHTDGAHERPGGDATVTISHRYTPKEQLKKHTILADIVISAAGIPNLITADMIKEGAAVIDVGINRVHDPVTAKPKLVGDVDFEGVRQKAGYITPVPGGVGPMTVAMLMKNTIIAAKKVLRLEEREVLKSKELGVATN

[2] = molecular target: T2, MTHFD1 recombinant human enzyme (Homo sapiens, UniProt P11586); assay: MTHFD1 inhibition assay (NAD(P)H-Glo luminescence); details: MTHFD1 IC50, recombinant human enzyme 200 nM, NADP, band
T2 sequence (P11586 2-291 limits assumed): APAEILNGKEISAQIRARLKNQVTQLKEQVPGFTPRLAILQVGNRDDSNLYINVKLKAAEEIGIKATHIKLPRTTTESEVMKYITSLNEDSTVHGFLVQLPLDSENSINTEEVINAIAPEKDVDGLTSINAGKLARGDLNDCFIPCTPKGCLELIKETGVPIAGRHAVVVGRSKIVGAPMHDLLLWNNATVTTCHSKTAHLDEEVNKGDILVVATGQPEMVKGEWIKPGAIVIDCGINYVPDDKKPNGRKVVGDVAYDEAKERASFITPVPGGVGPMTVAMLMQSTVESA

CCCOc1c(C(=O)NS(=O)(=O)N2CCCC2)ccc(C(=O)N2CCc3c(c(=O)oc4c(C)c(N5CCN(C)[C@@H](COC)C5)cc(C)c34)C2)c1F [Example 205, (R)-3-fluoro-4-(8-(3-(methoxymethyl)-4-methylpiperazin-1-yl)-7,10-dimethyl-5-oxo-1,3,4,5-tetrahydro-2H-chromeno[3,4-c]pyridine-3-carbonyl)-2-propoxy-N-(pyrrolidin-1-ylsulfonyl)benzamide]
IC50 [1]: 10 to 100 nM
MTHFD1/MTHFD2 IC50 ratio [1]: G (^ 3 to 9.0)
IC50 [2]: 10 to 100 nM

COC[C@H]1CN(c2cc(C)c3c4c(c(=O)oc3c2C)CN(C(=O)c2ccc(C(=O)NS(=O)(=O)N(C)C)c(N3CCC(F)(F)C3)c2)CC4)CCN1C [Example 82, (R)-2-(3,3-difluoropyrrolidin-1-yl)-N-(N,N-dimethylsulfamoyl)-4-(8-(3-(methoxymethyl)-4-methylpiperazin-1-yl)-7,10-dimethyl-5-oxo-1,3,4,5-tetrahydro-2H-chromeno[3,4-c]pyridine-3-carbonyl)benzamide]
IC50 [1]: 1 to 10 nM
IC50 [2]: 10 to 100 nM

COC[C@H]1CN(c2cc(C)c3c4c(c(=O)oc3c2C)CN(C(=O)c2ccc(C(=O)NS(=O)(=O)N3CCCC3)c(N3C5CCC3CC5)c2F)CC4)CCN1C [Example 97, (R)-2-(7-azabicyclo[2.2.1]heptan-7-yl)-3-fluoro-4-(8-(3-(methoxymethyl)-4-methylpiperazin-1-yl)-7,10-dimethyl-5-oxo-1,3,4,5-tetrahydro-2H-chromeno[3,4-c]pyridine-3-carbonyl)-N-(pyrrolidin-1-ylsulfonyl)benzamide]
IC50 [1]: 10 to 100 nM
MTHFD1/MTHFD2 IC50 ratio [1]: F (<3)
IC50 [2]: 10 to 100 nM

COC[C@H]1CN(c2cc(C)c3c4c(c(=O)oc3c2C)CN(C(=O)c2ccc(C(=O)NS(=O)(=O)N3C5CCC3CC5)c(OC3CC3)c2F)CC4)CCN1C [Example 213, (R)-N-((7-azabicyclo[2.2.1]heptan-7-yl)sulfonyl)-2-cyclopropoxy-3-fluoro-4-(8-(3-(methoxymethyl)-4-methylpiperazin-1-yl)-7,10-dimethyl-5-oxo-1,3,4,5-tetrahydro-2H-chromeno[3,4-c]pyridine-3-carbonyl)benzamide]
IC50 [1]: 1 to 10 nM
MTHFD1/MTHFD2 IC50 ratio [1]: G (^ 3 to 9.0)
IC50 [2]: 10 to 100 nM

COC[C@H]1CN(c2cc(C)c3c4c(c(=O)oc3c2C)CN(C(=O)c2ccc(C(=O)NS(=O)(=O)N(C)C(C)C)c(O[C@@H]3C[C@@H]5C[C@@H]5C3)c2F)CC4)CCN1C [Example 36, 2-(((1R,3r,5S)-bicyclo[3.1.0]hexan-3-yl)oxy)-3-fluoro-N-(N-isopropyl-N-methylsulfamoyl)-4-(8-((R)-3-(methoxymethyl)-4-methylpiperazin-1-yl)-7,10-dimethyl-5-oxo-1,3,4,5-tetrahydro-2H-chromeno[3,4-c]pyridine-3-carbonyl)benzamide]
IC50 [1]: 1 to 10 nM
MTHFD1/MTHFD2 IC50 ratio [1]: F (<3)
IC50 [2]: 1 to 10 nM

COC[C@H]1CN(c2cc(Cl)c3c4c(c(=O)oc3c2C)CN(C(=O)c2cc(N(C)C)c(C(=O)NS(=O)(=O)N3CC5(COC5)C3)cc2F)CC4)CCN1C [Example 282, (R)-N-((2-oxa-6-azaspiro[3.3]heptan-6-yl)sulfonyl)-4-(10-chloro-8-(3-(methoxymethyl)-4-methylpiperazin-1-yl)-7-methyl-5-oxo-1,3,4,5-tetrahydro-2H-chromeno[3,4-c]pyridine-3-carbonyl)-2-(dimethylamino)-5-fluorobenzamide]
IC50 [1]: 10 to 100 nM
MTHFD1/MTHFD2 IC50 ratio [1]: H (>9.0 to 30)
IC50 [2]: 100 to 1000 nM

COC[C@H]1CN(c2cc(C)c3c4c(c(=O)oc3c2C)CN(C(=O)c2ccc(C(=O)NS(=O)(=O)N3CCCC3)c(N3CC5CC5C3)c2F)CC4)CCN1C (stereo partly drawn) [Example 95, 2-(3-azabicyclo[3.1.0]hexan-3-yl)-3-fluoro-4-(8-((R)-3-(methoxymethyl)-4-methylpiperazin-1-yl)-7,10-dimethyl-5-oxo-1,3,4,5-tetrahydro-2H-chromeno[3,4-c]pyridine-3-carbonyl)-N-(pyrrolidin-1-ylsulfonyl)benzamide]
IC50 [1]: 100 to 1000 nM
MTHFD1/MTHFD2 IC50 ratio [1]: F (<3)
IC50 [2]: 100 to 1000 nM

COC[C@H]1CN(c2cc(C)c3c4c(c(=O)oc3c2C)CN(C(=O)c2ccc(OC3CCC3)c(C(=O)NS(=O)(=O)N3CCCC3)c2)CC4)CCN1C [Example 163, (R)-2-cyclobutoxy-5-(8-(3-(methoxymethyl)-4-methylpiperazin-1-yl)-7,10-dimethyl-5-oxo-1,3,4,5-tetrahydro-2H-chromeno[3,4-c]pyridine-3-carbonyl)-N-(pyrrolidin-1-ylsulfonyl)benzamide]
IC50 [1]: 100 to 1000 nM
MTHFD1/MTHFD2 IC50 ratio [1]: H (>9.0 to 30)
IC50 [2]: > 5000 nM

COC[C@H]1CN(c2ccc3c4c(c(=O)oc3c2C)CN(C(=O)c2cc(N3CC5CC5C3)c(C(=O)NS(=O)(=O)N3CCCC3)c(C(F)(F)F)c2)CC4)CCN1C (stereo partly drawn) [Example 112, 2-(3-azabicyclo[3.1.0]hexan-3-yl)-4-(8-((R)-3-(methoxymethyl)-4-methylpiperazin-1-yl)-7-methyl-5-oxo-1,3,4,5-tetrahydro-2H-chromeno[3,4-c]pyridine-3-carbonyl)-N-(pyrrolidin-1-ylsulfonyl)-6-(trifluoromethyl)benzamide]
IC50 [1]: 100 to 1000 nM
MTHFD1/MTHFD2 IC50 ratio [1]: G (^ 3 to 9.0)
IC50 [2]: > 5000 nM

COC[C@H]1CN(c2cc(C)c3c4c(c(=O)oc3c2C)CN(C(=O)c2ccc(C(=O)NS(=O)(=O)N(C)C)c(OC(C)C)c2F)CC4)CCN1C [Example 148, (R)-N-(N,N-dimethylsulfamoyl)-3-fluoro-2-isopropoxy-4-(8-(3-(methoxymethyl)-4-methylpiperazin-1-yl)-7,10-dimethyl-5-oxo-1,3,4,5-tetrahydro-2H-chromeno[3,4-c]pyridine-3-carbonyl)benzamide]
IC50 [1]: 1 to 10 nM
MTHFD1/MTHFD2 IC50 ratio [1]: G (^ 3 to 9.0)
IC50 [2]: 10 to 100 nM

COC[C@H]1CN(c2ccc3c4c(c(=O)oc3c2Cl)CN(C(=O)c2ccc(C(=O)NS(=O)(=O)C3(C)CC3)c(OC3CCCC3)c2F)CC4)CCN1C [Example 57, (R)-4-(7-chloro-8-(3-(methoxymethyl)-4-methylpiperazin-1-yl)-5-oxo-1,3,4,5-tetrahydro-2H-chromeno[3,4-c]pyridine-3-carbonyl)-2-(cyclopentyloxy)-3-fluoro-N-((1-methylcyclopropyl)sulfonyl)benzamide]
IC50 [1]: 1 to 10 nM
MTHFD1/MTHFD2 IC50 ratio [1]: F (<3)
IC50 [2]: 1 to 10 nM

CCOc1cc(C(=O)N2CCc3c(c(=O)oc4c(C)c(N5CCN(C)[C@@H](COC)C5)cc(Cl)c34)C2)c(F)cc1C(=O)NS(=O)(=O)N1C2CCC1CC2 [Example 317, (R)-N-((7-azabicyclo[2.2.1]heptan-7-yl)sulfonyl)-4-(10-chloro-8-(3-(methoxymethyl)-4-methylpiperazin-1-yl)-7-methyl-5-oxo-1,3,4,5-tetrahydro-2H-chromeno[3,4-c]pyridine-3-carbonyl)-2-ethoxy-5-fluorobenzamide]
IC50 [1]: 10 to 100 nM
MTHFD1/MTHFD2 IC50 ratio [1]: J (>30)
IC50 [2]: 100 to 1000 nM

COC[C@H]1CN(c2cc(Cl)c3c4c(c(=O)oc3c2C)CN(C(=O)c2cc(N(C)C)c(C(=O)NS(=O)(=O)N(C3CC3)C3CC3)cc2F)CC4)CCN1C [Example 277, (R)-4-(10-chloro-8-(3-(methoxymethyl)-4-methylpiperazin-1-yl)-7-methyl-5-oxo-1,3,4,5-tetrahydro-2H-chromeno[3,4-c]pyridine-3-carbonyl)-N-(N,N-dicyclopropylsulfamoyl)-2-(dimethylamino)-5-fluorobenzamide]
IC50 [1]: 10 to 100 nM
MTHFD1/MTHFD2 IC50 ratio [1]: H (>9.0 to 30)
IC50 [2]: 100 to 1000 nM
